This note sets out measurements from ChEMBL document CHEMBL5214923, “Contemporary mTOR inhibitor scaffolds to diseases breakdown: A patent review (2015-2021)” (Eur J Med Chem, 2022).

The target in test [1] is T1, mTORC1 (Homo sapiens, UniProt P42345+Q8N122+Q9BVC4). The test can be described thus: Inhibition of mTORC1 in human MCF7 cells assessed as measuring phosphorylated S6K1 incubated for 2 hrs by AlphaLISA assay. The format is cell-based.
Test [2] concerns the target T2, mTORC2 (Homo sapiens, UniProt P42345+Q6R327+Q9BPZ7+Q9BVC4). The experiment in a line: Inhibition of mTORC2 in human MCF7 cells assessed as measuring phosphorylated AKT incubated for 2 hrs by AlphaLISA assay. The format is cell-based. Background: Bead proximity is the source of the signal in Alpha formats.
The target of test [3] is T2, mTORC2. The test can be described thus: Inhibition of mTORC2 (unknown origin). The format is protein-complex assay.
For test [4], the target named is T1, mTORC1. The experiment in a line: Inhibition of mTORC1 (unknown origin). Format: protein-complex assay.
A short description of test [5]: Inhibition of mTORC1 in mouse MEF TSC1-/- cells assessed as measuring phosphorylated S6 level incubated for 2 hrs by Hoechst staining based fluorescence assay. Format: cell-based.

T2 sequence (Q6R327 whole entry, other chains not shown): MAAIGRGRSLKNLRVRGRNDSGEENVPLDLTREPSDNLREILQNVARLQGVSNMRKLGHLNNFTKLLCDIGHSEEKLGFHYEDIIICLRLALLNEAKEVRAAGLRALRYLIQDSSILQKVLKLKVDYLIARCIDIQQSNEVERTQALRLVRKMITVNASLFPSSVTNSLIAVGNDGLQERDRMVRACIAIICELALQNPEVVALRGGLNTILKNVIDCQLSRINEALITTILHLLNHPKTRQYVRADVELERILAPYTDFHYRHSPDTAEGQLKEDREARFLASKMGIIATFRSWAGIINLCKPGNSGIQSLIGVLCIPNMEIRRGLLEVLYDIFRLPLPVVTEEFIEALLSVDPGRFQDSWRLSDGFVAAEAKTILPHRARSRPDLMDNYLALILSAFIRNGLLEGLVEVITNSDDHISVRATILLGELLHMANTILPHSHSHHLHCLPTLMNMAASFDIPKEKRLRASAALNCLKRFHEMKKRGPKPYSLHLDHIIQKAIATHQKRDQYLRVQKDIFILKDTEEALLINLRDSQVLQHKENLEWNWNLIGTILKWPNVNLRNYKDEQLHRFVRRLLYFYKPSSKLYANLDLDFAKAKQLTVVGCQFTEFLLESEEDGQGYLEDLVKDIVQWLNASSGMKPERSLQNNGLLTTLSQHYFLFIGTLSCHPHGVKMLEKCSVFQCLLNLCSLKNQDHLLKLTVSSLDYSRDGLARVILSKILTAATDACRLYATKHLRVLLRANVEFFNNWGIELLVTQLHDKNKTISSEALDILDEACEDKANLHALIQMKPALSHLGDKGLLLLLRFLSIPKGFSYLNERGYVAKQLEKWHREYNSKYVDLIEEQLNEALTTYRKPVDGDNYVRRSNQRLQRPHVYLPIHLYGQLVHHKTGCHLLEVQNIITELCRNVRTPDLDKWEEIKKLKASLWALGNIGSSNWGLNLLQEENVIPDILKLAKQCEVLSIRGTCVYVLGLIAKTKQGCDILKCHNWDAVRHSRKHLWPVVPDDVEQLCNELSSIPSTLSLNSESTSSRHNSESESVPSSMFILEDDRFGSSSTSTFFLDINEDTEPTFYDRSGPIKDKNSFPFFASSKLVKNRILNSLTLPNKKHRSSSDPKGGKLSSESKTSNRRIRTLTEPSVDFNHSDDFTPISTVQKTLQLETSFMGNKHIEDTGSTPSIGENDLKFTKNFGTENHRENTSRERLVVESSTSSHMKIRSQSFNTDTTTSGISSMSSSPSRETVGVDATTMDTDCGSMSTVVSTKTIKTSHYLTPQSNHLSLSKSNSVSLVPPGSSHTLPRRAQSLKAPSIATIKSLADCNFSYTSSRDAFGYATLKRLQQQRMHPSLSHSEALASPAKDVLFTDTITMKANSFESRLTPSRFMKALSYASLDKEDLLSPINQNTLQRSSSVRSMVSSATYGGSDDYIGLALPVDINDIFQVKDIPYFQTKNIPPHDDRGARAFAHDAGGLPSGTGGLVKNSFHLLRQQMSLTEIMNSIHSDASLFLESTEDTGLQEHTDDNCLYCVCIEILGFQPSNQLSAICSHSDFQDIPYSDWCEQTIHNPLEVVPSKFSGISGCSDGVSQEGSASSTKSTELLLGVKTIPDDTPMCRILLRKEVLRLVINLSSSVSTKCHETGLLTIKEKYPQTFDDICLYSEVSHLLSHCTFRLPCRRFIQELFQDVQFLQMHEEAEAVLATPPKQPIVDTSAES
T2 sequence (Q9BPZ7 2-522 limits assumed, other chains not shown): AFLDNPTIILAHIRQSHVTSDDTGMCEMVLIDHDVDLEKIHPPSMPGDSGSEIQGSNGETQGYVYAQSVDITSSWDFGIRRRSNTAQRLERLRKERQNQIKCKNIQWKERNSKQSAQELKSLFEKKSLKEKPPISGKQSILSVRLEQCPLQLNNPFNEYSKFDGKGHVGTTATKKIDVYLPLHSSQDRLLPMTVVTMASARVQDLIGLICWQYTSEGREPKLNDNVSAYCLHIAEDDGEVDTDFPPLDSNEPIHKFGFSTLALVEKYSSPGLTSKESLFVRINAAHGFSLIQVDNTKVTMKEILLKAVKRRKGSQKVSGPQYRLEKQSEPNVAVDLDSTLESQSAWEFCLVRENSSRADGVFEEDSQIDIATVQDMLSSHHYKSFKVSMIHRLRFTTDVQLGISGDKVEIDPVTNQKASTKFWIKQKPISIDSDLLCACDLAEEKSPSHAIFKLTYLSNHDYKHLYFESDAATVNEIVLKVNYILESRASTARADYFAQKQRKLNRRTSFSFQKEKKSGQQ
T2 sequence (Q9BVC4 whole entry, other chains not shown): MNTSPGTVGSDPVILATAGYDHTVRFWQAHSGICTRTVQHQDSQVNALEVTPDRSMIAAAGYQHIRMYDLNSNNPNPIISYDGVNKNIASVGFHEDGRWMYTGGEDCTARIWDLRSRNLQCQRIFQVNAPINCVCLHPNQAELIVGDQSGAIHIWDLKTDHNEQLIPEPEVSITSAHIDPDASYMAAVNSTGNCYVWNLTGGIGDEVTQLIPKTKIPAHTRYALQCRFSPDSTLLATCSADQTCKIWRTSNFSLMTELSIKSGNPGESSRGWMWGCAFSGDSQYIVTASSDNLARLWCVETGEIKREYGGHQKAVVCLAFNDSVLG

For orientation: IC50 means the concentration needed to halve the response being measured. Consider `Cc1cc(C)c(C(=O)N2CCN(c3ncccc3S(N)(=O)=O)CC2)nc1NC1CCN(c2ccccc2C#N)CC1`, for which the results for the IC50 at mTORC1 [1] and at mTORC2 [2] were 10 nM and > 10000 nM, respectively.
As for `Cc1c(CN2C3CCC2CN(c2ccccc2C#N)C3)cc(C(=O)N2CCN(c3ccccn3)CC2)n1C`, the IC50 at mTORC1 [1] is 10 nM; on mTORC2 [2] it was > 10000 nM.
For the molecule `CO[C@@H]1C[C@H](C[C@@H](C)[C@@H]2CC(=O)[C@H](C)/C=C(\C)[C@@H](O)[C@@H](OC)C(=O)[C@H](C)C[C@H](C)/C=C/C=C/C=C(\C)[C@@H](OCCSCCSCCO)C[C@@H]3CC[C@@H](C)[C@@](O)(O3)C(=O)C(=O)N3CCCC[C@H]3C(=O)O2)CC[C@H]1O`, the IC50 was ≥ 100 nM at mTORC2 [3] and < 0.1 nM against mTORC1 [4].
As for `CO[C@H]1C[C@@H]2CC[C@@H](C)[C@@](O)(O2)C(=O)C(=O)N2CCCC[C@H]2C(=O)O[C@H]([C@H](C)C[C@@H]2CC[C@@H](OCCO)[C@H](OC)C2)CC(=O)[C@H](C)/C=C(\C)[C@@H](O)[C@@H](OC)C(=O)[C@H](C)C[C@H](C)/C=C/C=C/C=C/1C` [EVEROLIMUS], at mTORC1 [4], half-maximal inhibition (IC50) required 0.05 nM.
As for `Cc1cc(C)c(C(=O)N2CCN(c3ccc(F)cn3)[C@H](CO)C2)c(C)c1NC1CCN(c2cccnn2)CC1`, the figures for the IC50 on mTORC1 [1] and on mTORC2 [2] were 10 nM and > 10000 nM, respectively.
For `Nc1ncc(-c2nc(N3CCOCC3)c3c(n2)N2CCOC[C@@H]2C3)cn1`, the results for the IC50 at mTORC2 [3] and against mTORC1 [4] were 154 nM and 98 nM, respectively.
For the molecule `Cn1c(C(=O)N2CCN(c3ccccc3)CC2)cc(CN2CCN(c3ccccc3C#N)CC2)c1C#N`, the IC50 was 10 nM at mTORC1 [1] and > 10000 nM on mTORC2 [2].
For the molecule `CO[C@@H]1C[C@H](C[C@@H](C)[C@@H]2CC(=O)[C@H](C)/C=C(\C)[C@@H](O)[C@@H](OC)C(=O)[C@H](C)C[C@H](C)/C=C/C=C/C=C(\C)[C@@H](OCC3COCCOCCOCCO3)C[C@@H]3CC[C@@H](C)[C@@](O)(O3)C(=O)C(=O)N3CCCC[C@H]3C(=O)O2)CC[C@H]1O` (some centres not stated), the values for the IC50 against mTORC2 [3] and on mTORC1 [4] were ≥ 100 nM and < 0.1 nM, respectively.
For the molecule `Cc1c(CN2CCN(c3ccccc3Cl)CC2)cc(C(=O)N2CCN(c3cccc(F)c3C#N)C[C@@H]2C)n1C`, the IC50 on mTORC1 [1] is 10 nM; on mTORC2 [2], > 10000 nM.
With `Nc1ncc(-c2nc(N3C4CCC3COC4)nc(N3C4COCC3COC4)n2)c(C(F)F)n1`, the IC50 against mTORC2 [3] was 219 nM; against mTORC1 [4], 79 nM.
The matching figures for `CO[C@@H]1C[C@H](C[C@@H](C)[C@@H]2CC(=O)[C@H](C)/C=C(\C)[C@@H](O)[C@@H](OC)C(=O)[C@H](C)C[C@H](C)/C=C/C=C/C=C(\C)[C@@H](OCCOCCOCCO)C[C@@H]3CC[C@@H](C)[C@@](O)(O3)C(=O)C(=O)N3CCCC[C@H]3C(=O)O2)CC[C@H]1O`: ≥ 100 nM and < 0.1 nM.
Turning to `Cc1cc(C)c(C(=O)N2CCN(c3ccccn3)[C@H](CO)C2)cc1NC1CCN(c2ccccc2OC(F)F)CC1`, the results for the IC50 at mTORC1 [1] and on mTORC2 [2] were 10 nM and > 10000 nM, respectively.
For the molecule `Nc1ncc(-c2nc(N3CCOCC3)nc3c2C[C@H]2COCCN32)cn1`, the IC50 against mTORC2 [3] stood at 1260 nM; on mTORC1 [4], 594 nM.
As for `CO[C@@H]1C[C@H](C[C@@H](C)[C@@H]2CC(=O)[C@H](C)/C=C(\C)[C@@H](O)[C@@H](OC)C(=O)[C@H](C)C[C@H](C)/C=C/C=C/C=C(\C)C(N3CCS3(=O)=O)C[C@@H]3CC[C@@H](C)[C@@](O)(O3)C(=O)C(=O)N3CCCC[C@H]3C(=O)O2)CC[C@@H]1n1cnnn1` (some centres not stated), the IC50 in test [5] (Mus musculus, MEF, 2 h) was determined as 0.374 nM.
As for `Nc1ncc(-c2nc(N3CCOCC3)c3c(n2)N2CCOC[C@H]2C3)cn1`, the values for the 50% inhibitory concentration (IC50) at mTORC2 [3] and on mTORC1 [4] were 145 nM and 65 nM, respectively.
The like results for `C[C@H]1COCCN1c1nc(-c2cnc(N)nc2C(F)F)nc(N2CCOCC2)n1` were, in that order, 35 nM and 72 nM.
For the molecule `CO[C@@H]1C[C@H](C[C@@H](C)[C@@H]2CC(=O)[C@H](C)/C=C(\C)[C@@H](O)[C@@H](OC)C(=O)[C@H](C)C[C@H](C)/C=C/C=C/C=C(\C)[C@@H](OCCOCCOCCOCCOCCOCCOCCOCCO)C[C@@H]3CC[C@@H](C)[C@@](O)(O3)C(=O)C(=O)N3CCCC[C@H]3C(=O)O2)CC[C@H]1O`, the half-inhibitory concentration (IC50) against mTORC2 [3] was ≥ 100 nM; at mTORC1 [4] it was < 0.1 nM.
For `Cn1c(C(=O)N2CCN(c3ccccc3)CC2)cc(CN2CCN(c3ccccc3Cl)CC2)c1C#N`, the values for the IC50 on mTORC1 [1] and on mTORC2 [2] were 10 nM and > 10000 nM, respectively.
As to `CO[C@@H]1C[C@H](C[C@@H](C)[C@@H]2CC(=O)[C@H](C)/C=C(\C)[C@@H](O)[C@@H](OC)C(=O)[C@H](C)C[C@H](C)/C=C/C=C/C=C(\C)C(N3CCCS3(=O)=O)C[C@@H]3CC[C@@H](C)[C@@](O)(O3)C(=O)C(=O)N3CCCC[C@H]3C(=O)O2)CC[C@H]1O` (some centres not stated), the IC50 in test [5] (Mus musculus, MEF, 2 h) was 1.36 nM.
As to `Cc1cc(C)c(C(=O)N2CCN(c3cccnc3S(N)(=O)=O)CC2)c(C)c1NC1CCN(c2ccccc2C#N)CC1`, the IC50 on mTORC1 [1] was 10 nM; on mTORC2 [2] it was > 10000 nM.
With `CO[C@@H]1C[C@H](C[C@@H](C)[C@@H]2CC(=O)[C@H](C)/C=C(\C)[C@@H](O)[C@@H](OC)C(=O)[C@H](C)C[C@H](C)/C=C/C=C/C=C(\C)C(N3CCCS3(=O)=O)C[C@@H]3CC[C@@H](C)[C@@](O)(O3)C(=O)C(=O)N3CCCC[C@H]3C(=O)O2)CC[C@H]1OCCO` (stereo in doubt; 12), the IC50 in test [5] (mef) stood at 22.5 nM.
On to `Cc1cc(C)c(C(=O)N2CCN(c3ccccc3)C(C(N)=O)C2)c(C)c1NC1CCN(c2ccc(F)cc2C#N)CC1` (configuration not stated), for which the IC50 at mTORC1 [1] was 10 nM; at mTORC2 [2], > 10000 nM.
As for `CO[C@@H]1C[C@H](C[C@@H](C)[C@@H]2CC(=O)[C@H](C)/C=C(\C)[C@@H](O)[C@@H](OC)C(=O)[C@H](C)C[C@H](C)/C=C/C=C/C=C(\C)[C@@H](OCCOCCO)C[C@@H]3CC[C@@H](C)[C@@](O)(O3)C(=O)C(=O)N3CCCC[C@H]3C(=O)O2)CC[C@H]1O`, the IC50 against mTORC2 [3] is ≥ 100 nM; against mTORC1 [4] it was < 0.1 nM.
Turning to `Cc1c(CN2CCN(c3ncccc3Cl)CC2)cc(C(=O)N2CCN(c3cc(F)c(F)cc3C#N)CC2)n1C`, the IC50 on mTORC1 [1] is 10 nM; at mTORC2 [2], > 10000 nM.
As to `CC1(C)COCCN1c1nc(-c2cnc(N)cc2C(F)F)nc(N2CCOCC2)n1`, the concentration for half-maximal inhibition (IC50) amounted to 54 nM at mTORC2 [3] and 45 nM at mTORC1 [4].
With `Cc1c(CN2CCN(c3ccccc3C#N)CC2)cc(C(=O)N2CCN(c3oc(C4CC4)nc3C#N)CC2)n1C`, the values for the IC50 on mTORC1 [1] and on mTORC2 [2] were 10 nM and > 10000 nM, respectively.
For the molecule `Cc1cc(C)c(C(=O)N2CCN(c3ncccc3F)[C@H](CO)C2)cc1NC1CCN(c2ccccc2C#N)CC1`, the IC50 is 10 nM at mTORC1 [1] and > 10000 nM at mTORC2 [2].
For the molecule `C[C@H]1COCCN1c1nc(-c2cnc(N)cc2C(F)F)nc(N2CCOCC2)n1`, the IC50 was determined as 74 nM on mTORC2 [3] and 68 nM against mTORC1 [4].
For the molecule `CNC(=O)c1cc(F)ccc1N1CCN(C(=O)c2cc(NC3CCN(c4ccccc4C#N)CC3)c(C)cc2C)CC1`, the results for the IC50 on mTORC1 [1] and on mTORC2 [2] were 10 nM and > 10000 nM, respectively.
As for `Nc1ncc(-c2nc(N3CCOCC3)nc3c2C[C@@H]2COCCN32)cn1`, the IC50 at mTORC2 [3] was 575 nM; against mTORC1 [4], 574 nM.
Consider `Cc1cc(C)c(C(=O)N2CCN(c3cncc4cn[nH]c34)CC2)nc1NC1CCN(c2ccccc2C#N)CC1`, for which the values for the IC50 on mTORC1 [1] and on mTORC2 [2] were 10 nM and > 10000 nM, respectively.
`CC1(C)COCCN1c1nc(-c2cnc(N)cc2C(F)F)nc(N2CCOCC2(C)C)n1`: the IC50 against mTORC2 [3] worked out at 106 nM; against mTORC1 [4], 47 nM.
Turning to `Cc1cc(C)c(C(=O)N2CCN(c3cccc(F)c3[S@](C)(=N)=O)CC2)cc1NC1CCN(c2ccccc2C#N)CC1`, the IC50 on mTORC1 [1] was 10 nM; on mTORC2 [2], > 10000 nM.
